Experimental data reported in patent EP4483954A1 (Masarykova Univerzita, priority 2023, dated 2025).

Assays:
Type in all cases: biochemical
CDKL3(h) = biological target: T1, CDKL3(h) (Homo sapiens, UniProt Q8IVW4); assay: radiometric kinase assay (KinaseProfiler, Eurofins), CDKL3; details: in vitro radiometric kinase assay, tested at 1 nM to 10 000 nM, no pre-incubation; read-out: inhibitory activities (IC50 values) CDKL3
T1 construct: purchased Eurofins (KinaseProfiler)
Method: (§1) The compounds were profiled in the radiometric assays (KinaseProfiler, Eurofins).
(§2) Briefly, kinases were diluted in the buffer shown below prior to addition to the reaction mix: • CDKL3, TAF1L: 20 mM Tris/HCl pH 8.5, 0.2 mM EDTA, 0.1% β-mercaptoethanol, 0.01% Brij-35, 5% glycerol, 1 mg/ml BSA; • Haspin: 15 mM MOPS, 0.75 mM EDTA, 0.0075% Brij-35, 3.75% Glycerol, 150 mM NaCl, 0.1% β-mercaptoethanol, 1 mg/mLBSA; • CDKL4, CLK2, PIM1, TRB2: […], 1 mM EDTA, 0.01% Brij-35, 5% Glycerol, 0.1% β-mercaptoethanol, 1 mg/mL BSA.
(§3) All compounds were prepared to 50x final assay concentration in 100% DMSO. This working stock of the compound was added to the assay well as the first component in the reaction, followed by the remaining components as detailed in the general assay protocols below. There was no pre-incubation step between the compound and the kinase prior to initiation of the reaction.
CDKL3(h) was incubated with 8 mM MOPS pH 7.0, 0.2 mM EDTA, 250 µM RRRFRPASPLRGPPK (SEQ ID NO. 1), 10 mM magnesium acetate and γ-^33P-ATP (specific activity and concentration as required). The reaction was initiated by the addition of the Mg/ATP mix. After incubation for 120 minutes at room temperature, the reaction was stopped by the addition of phosphoric acid to a concentration of 0.5%. An aliquot of the stopped reaction was spotted onto a filter and washed four times for 4 minutes in 0.425% phosphoric acid and once in methanol prior to drying and scintillation counting.
(§4) Kinase activity data were expressed as the percent remaining kinase activity in tested samples compared to the vehicle (DMSO) reactions. The compounds were tested at the following concentrations: 1 nM, 3 nM, 10 nM, 30 nM, 100 nM, 300 nM, 1000 nM, 3000 nM, and 10 000 nM; IC50 values and curve fits were then obtained.

CLK2 (h) = biological target: T2, CLK2 (h) (Homo sapiens, UniProt P49760); assay: radiometric kinase assay (KinaseProfiler, Eurofins), CLK2; details: in vitro radiometric kinase assay, tested at 1 nM to 10 000 nM, no pre-incubation; read-out: inhibitory activities (IC50 values) CLK2
T2 construct: purchased Eurofins (KinaseProfiler)
T2 sequence (P49760 whole entry): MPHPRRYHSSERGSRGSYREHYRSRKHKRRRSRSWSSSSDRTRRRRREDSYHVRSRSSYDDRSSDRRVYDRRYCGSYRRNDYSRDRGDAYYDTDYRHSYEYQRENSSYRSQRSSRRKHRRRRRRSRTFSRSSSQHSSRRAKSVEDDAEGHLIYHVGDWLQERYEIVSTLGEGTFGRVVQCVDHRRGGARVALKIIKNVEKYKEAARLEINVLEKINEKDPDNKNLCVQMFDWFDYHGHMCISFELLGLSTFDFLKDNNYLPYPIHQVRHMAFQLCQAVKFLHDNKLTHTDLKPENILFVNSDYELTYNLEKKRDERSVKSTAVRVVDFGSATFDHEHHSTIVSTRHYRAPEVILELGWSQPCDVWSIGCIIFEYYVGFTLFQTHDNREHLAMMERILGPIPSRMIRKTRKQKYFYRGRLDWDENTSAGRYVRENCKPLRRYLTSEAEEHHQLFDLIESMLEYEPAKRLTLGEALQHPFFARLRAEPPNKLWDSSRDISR
Method: as §1, §2, §3
CLK2 (h) was incubated with 8 mM MOPS pH 7.0, 0.2 mM EDTA, 20 µM […](p)EDEEE (SEQ ID NO. 2), 10 mM magnesium acetate and γ-^33P-ATP (specific activity and concentration as required). The reaction was initiated by the addition of the Mg/ATP mix. After incubation for 40 minutes at room temperature, the reaction was stopped by the addition of phosphoric acid to a concentration of 0.5%. An aliquot of the reaction was then spotted onto a filter and washed four times for 4 minutes in 0.425% phosphoric acid and once in methanol prior to drying and scintillation counting.
as §4

DYRK2 (h) = biological target: T3, DYRK2 (h) (Homo sapiens, UniProt Q92630); assay: radiometric kinase assay (KinaseProfiler, Eurofins), DYRK2; details: in vitro radiometric kinase assay, tested at 1 nM to 10 000 nM, no pre-incubation; read-out: inhibitory activities (IC50 values) DYRK2
T3 construct: purchased Eurofins (KinaseProfiler)
T3 sequence (Q92630 1-601): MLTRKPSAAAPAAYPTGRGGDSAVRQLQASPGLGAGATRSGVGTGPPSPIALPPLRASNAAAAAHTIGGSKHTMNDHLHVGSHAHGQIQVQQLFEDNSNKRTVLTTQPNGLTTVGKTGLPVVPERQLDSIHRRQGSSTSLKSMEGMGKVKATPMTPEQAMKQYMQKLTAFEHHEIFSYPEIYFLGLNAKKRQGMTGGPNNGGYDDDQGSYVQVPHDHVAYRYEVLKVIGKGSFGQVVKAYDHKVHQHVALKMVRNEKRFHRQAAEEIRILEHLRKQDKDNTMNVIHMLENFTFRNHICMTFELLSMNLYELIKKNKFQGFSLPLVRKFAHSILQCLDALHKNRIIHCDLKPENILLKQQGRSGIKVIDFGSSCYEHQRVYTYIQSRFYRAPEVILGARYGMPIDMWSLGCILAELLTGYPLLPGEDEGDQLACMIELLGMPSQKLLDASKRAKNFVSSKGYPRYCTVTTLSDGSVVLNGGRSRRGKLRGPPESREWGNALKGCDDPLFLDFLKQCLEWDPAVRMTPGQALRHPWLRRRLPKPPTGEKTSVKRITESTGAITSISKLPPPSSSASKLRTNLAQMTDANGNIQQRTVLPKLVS
Method: as §1, §3
DYRK2 (h) was incubated with 8 mM MOPS pH 7.0, 0.2 mM EDTA, 2 mg/mL casein, 10 mM magnesium acetate and γ-^33P-ATP (specific activity and concentration as required). The reaction was initiated by the addition of the Mg/ATP mix. After incubation for 40 minutes at room temperature, the reaction was stopped by the addition of phosphoric acid to a concentration of 0.5%. An aliquot of the reaction was then spotted onto a filter and washed four times for 4 minutes in 0.425% phosphoric acid and once in methanol prior to drying and scintillation counting.
as §4

PIM1 (h) = biological target: T4, PIM1 (h) (Homo sapiens, UniProt P11309); assay: radiometric kinase assay (KinaseProfiler, Eurofins), PIM1; details: in vitro radiometric kinase assay, tested at 1 nM to 10 000 nM, no pre-incubation; read-out: inhibitory activities (IC50 values) PIM1
T4 construct: purchased Eurofins (KinaseProfiler)
T4 sequence (P11309 whole entry): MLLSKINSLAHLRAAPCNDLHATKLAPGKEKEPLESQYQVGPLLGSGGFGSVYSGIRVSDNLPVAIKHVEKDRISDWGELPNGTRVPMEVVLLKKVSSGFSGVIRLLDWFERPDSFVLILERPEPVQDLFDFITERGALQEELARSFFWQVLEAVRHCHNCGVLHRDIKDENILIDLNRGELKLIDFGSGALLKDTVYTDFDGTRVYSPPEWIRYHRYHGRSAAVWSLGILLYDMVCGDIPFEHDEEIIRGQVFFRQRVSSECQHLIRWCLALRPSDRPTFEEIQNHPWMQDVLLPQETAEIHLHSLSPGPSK
Method: as §1, §2, §3
PIM1 (h) was incubated with 8 mM MOPS pH 7.0, 0.2 mM EDTA, 100 µM KKRNRTLTV (SEQ ID NO. 4), 10 mM magnesium acetate and γ-^33P-ATP (specific activity and concentration as required). The reaction was initiated by the addition of the Mg/ATP mix. After incubation for 40 minutes at room temperature, the reaction was stopped by the addition of phosphoric acid to a concentration of 0.5%. An aliquot of the reaction was then spotted onto a filter and washed four times for 4 minutes in 0.425% phosphoric acid and once in methanol prior to drying and scintillation counting.
as §4

T1 sequence (Q8IVW4 whole entry): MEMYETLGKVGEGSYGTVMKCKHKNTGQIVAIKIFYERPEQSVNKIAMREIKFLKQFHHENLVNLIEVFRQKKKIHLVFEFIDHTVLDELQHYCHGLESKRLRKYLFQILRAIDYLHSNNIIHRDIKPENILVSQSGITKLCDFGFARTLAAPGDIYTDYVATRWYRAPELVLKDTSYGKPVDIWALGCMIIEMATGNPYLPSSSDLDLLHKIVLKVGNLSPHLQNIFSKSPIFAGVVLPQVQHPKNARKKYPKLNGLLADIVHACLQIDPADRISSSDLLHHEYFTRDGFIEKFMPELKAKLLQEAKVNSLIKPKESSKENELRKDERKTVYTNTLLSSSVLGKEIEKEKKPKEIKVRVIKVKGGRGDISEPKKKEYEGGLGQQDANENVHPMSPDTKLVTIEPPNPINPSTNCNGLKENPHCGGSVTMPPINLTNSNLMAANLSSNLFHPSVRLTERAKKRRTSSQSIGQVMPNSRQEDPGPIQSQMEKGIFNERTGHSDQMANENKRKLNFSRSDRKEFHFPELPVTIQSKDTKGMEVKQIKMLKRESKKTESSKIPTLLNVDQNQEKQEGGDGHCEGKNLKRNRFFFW

| IC50 (CDKL3(h)) | IC50 (CLK2 (h)) | IC50 (DYRK2 (h)) | IC50 (PIM1 (h)) | Structure (SMILES) |
| --- | --- | --- | --- | --- |
| 0.5 to 3 µM | 3 to 10 µM | 0.5 to 3 µM | 0.5 to 3 µM | Cn1cc(-c2ccc3scc(-c4ccnnc4)c3n2)cn1 [Preparative Example 40, 5-(1-methyl-1H-pyrazol-4-yl)-3-(pyridazin-4-yl)thieno[3,2-b]-pyridine] |
| 3 to 10 µM | 3 to 10 µM | 3 to 10 µM | 3 to 10 µM | Cn1cc(-c2ccc3scc(C(=O)c4ccccc4)c3n2)cn1 [Preparative Example 73, (5-(1-methyl-1H-pyrazol-4-yl)thieno[3,2-b]pyridin-3-yl)(phenyl)-methanone] |
| 0.5 to 3 µM | 3 to 10 µM | 0.5 to 3 µM | 3 to 10 µM | Cc1sc2ccc(-c3cnn(C)c3)nc2c1-c1ccncc1 [Preparative Example 142, 2-methyl-5-(1-methyl-1H-pyrazol-4-yl)-3-(pyridin-4-yl)thieno[3,2-b]pyridine] |
| 3 to 10 µM | 3 to 10 µM | 3 to 10 µM | 3 to 10 µM | c1ccc(-c2csc3ccc(-c4cnoc4)nc23)cc1 [Preparative Example 124, 4-(3-phenylthieno[3,2-b]pyridin-5-yl)isoxazole] |
| 0.02 to 0.099 µM | 0.5 to 3 µM | 0.1 to 0.499 µM | 0.1 to 0.499 µM | Cn1cc(-c2ccc3scc(Nc4ccccc4)c3n2)cn1 [Preparative Example 76, 5-(1-methyl-1H-pyrazol-4-yl)-N-phenylthieno[3,2-b]pyridin-3-amine] |
| 0.5 to 3 µM | 3 to 10 µM | 3 to 10 µM | 3 to 10 µM | FC(F)(F)n1cc(-c2ccc3scc(-c4ccncc4)c3n2)cn1 [Preparative Example 78, 3-(pyridin-4-yl)-5-(1-(trifluoromethyl)-1H-pyrazol-4-yl)thieno[3,2-b]pyridine] |
| 3 to 10 µM | 3 to 10 µM | 3 to 10 µM | 3 to 10 µM | Fc1cc(-c2ccc3scc(-c4ccccc4)c3n2)cc(F)c1F [Preparative Example 122, 3-phenyl-5-(3,4,5-trifluorophenyl)thieno[3,2-b]pyridine] |

| Structure (SMILES) | IC50 (CDKL3(h)) | IC50 (CLK2 (h)) | IC50 (DYRK2 (h)) | IC50 (PIM1 (h)) |
| --- | --- | --- | --- | --- |
| Cn1cc(-c2ccc3scc(-c4ccnc(C#N)c4)c3n2)cn1 | 0.1 to 0.499 µM | 3 to 10 µM | 0.5 to 3 µM | 0.5 to 3 µM |
| Cn1cc(-c2ccc3scc(-c4cnn(Cc5ccccc5)c4)c3n2)cn1 | 0.5 to 3 µM | 3 to 10 µM | 3 to 10 µM | 0.02 to 0.099 µM |
